Test results from patent US11590110B2, “Compositions and methods for reactivating latent immunodeficiency virus using a GSK-3 inhibitor” (priority 2017, dated 2023).

Legend:
CD4+ T cells [1] = assay: Example 5: GLUT1 surface expression, flow cytometry; format: cell-based, human; conditions: 2 or 24 hours; 1 μM tideglusib; CD4+ T cells of three HIV-negative donors
Procedure: (§1) Freshly isolated PBMCs or CD4^+ T cells were stained for viability, using the fixable viability dye Zombie violet (1:50, Biolegend) according to the manufacturer's recommendation. Surface staining was performed with the following antibodies at 1:100 dilutions: CD3-PE-Cy7, CD4-APC-Cy7, CD69-FITC, CD25-PE (all 1:100, Biolegend), and Glut-1-Ax647 (BD Bioscience, 566580) in staining buffer for 20 min on ice and cells were fixed in 1% PFA-containing PBS. All flow analysis was performed on the LSRII (BD Biosciences) using FlowJo software (v.10.4.2). Color compensations were performed using single-stained samples for each of the fluorochromes used. Data were analyzed using FlowJo software (TreeStar, San Carlos, Calif.).
Changes to the metabolism of resting CD4^+ T-cells by tideglusib were studied. […] […].

NF-κB (p65) = assay: Example 5: NF-κB (p65) binding with target DNA sequences, ELISA; format: cell-based, human; conditions: 1 μM
Procedure: To determine the specific NF-κB p65 DNA binding activity of treated CD4^+ T cells, an aliquot of the same nuclear extracts used for the p65/TBP western blots were submitted to the Transcription Factor Assay kit (Abcam, catalogue no. ab133112). Following the manufactures instructions sequentially, nuclear extracts were incubated in the TFA 96 well plate coated with double strand DNA NF-κB oligos. The wells were washed then incubated with primary anti-p65 antibody that is then detected by incubation with HRP conjugated secondary antibody. Developing reagents are added and absorbance is read at 450 nm. The level of absorbance indicates the DNA binding activity. For each donor experiment, binding specificity controls include a NF-κB competitor dsDNA control well and a non-specific binding control well. The assay was performed on 3 different donor samples.

[2] = tested on: AKT/mTOR pathway in CD4+ T cells; assay: Example 5: RNA and protein expression profiling with nanoString; format: cell-based, human; conditions: 1 μM
Procedure: Quantitative RNA and protein expression data were generated using the nCounter Vantage 3D Solid Tumor Assay and the nCounter SPRINT profiler (NanoString Technologies), comprising 770 RNA and 30 protein targets including positive and negative controls. 1-3 million negatively selected primary CD4^+ T cells purified from HIV-positive donors on suppressive ART, as described above, were treated with 1 μM tideglusib or left untreated (DMSO control). […]. For RNA samples, an additional RNA purification step (Qiagen miRNeasy Mini Kit) was necessary to ensure an appropriate sample input for the nCounter assay. A total of at least 30 ng RNA was used for each sample. Otherwise, samples were processed according to the manufacturer's instructions. RNA and protein expression values were normalized and analyzed using the nSolver Analysis Software 4.0 and the add-on Advanced Analysis Software 2.0.115 (NanoString Technologies). Normalization genes for each sample were automatically selected by the software based on the geNorm algorithm (ref vandesompele). Biological replicates were then grouped according to treatment and the differential expression of each analyte-type (RNA or protein target) was determined in comparison to the untreated condition by considering inter-donor differences as confounding variables. Based on the differential expression of each gene, pre-defined gene sets by nanoString, representing different pathways included in this assay, were analyzed by calculating global significance scores for each gene set within each treatment, as follows: […]

CD4+ T cells [3] = assay: Example 5: surface expression of activation markers CD69 and CD25, flow cytometry; format: cell-based, human; conditions: 48 hours
Procedure: as §1

[4] = tested on: latent HIV-1 in GALT cultures from HIV-positive donors on suppressive ART; assay: Example 5: latency reversion in gut-associated lymphoid tissue (GALT) cultures, ddPCR; format: cell-based
Procedure: PBMCs and CD4^+ T cells from HIV-positive donors were cultured and treated in the presence of 5 μM saquinavir. For gut-associated lymphoid tissue (GALT) cells, to remove the epithelium and epithelial cells, 30 tissue biopsy tissue pieces were incubated in pre-warmed buffer containing 10 mM DTT, 5 mM EDTA, 10 mM HEPES and 5% FBS for 20 minutes at 37° C. under continuous rotation, vortexed and the supernatant aspirated. Tissue pieces were then incubated for a second time in the same pre-warmed buffer for a further 20 minutes at 37° C. under continuous rotation. The sample was again vortexed, and then rinsed for 20 minutes at 37° C. under continuous rotation with RMPI, 10 mM HEPES and 5% FBS. To then isolate lymphocytes from the lamina propria, a second, pre-warmed buffer containing RPMI, 10 mM HEPES, 7.5 µg/ml DNAse and 5% FBS was applied to the tissue pieces, and these were again incubated for 20 minutes at 37° C. under continuous rotation. […]
5 million resting CD4^+ T lymphocytes were plated and either left unstimulated (media alone plus DMSO), stimulated with anti-CD3/CD28 coated or incubated with LRAs for 48 hours. […] Subsequently, ddPCR was applied to quantify pre-amplified cDNA. […] Finally, samples were amplified on a BioRad C1000 Thermocycler and analyzed using a BioRad QX100 ddPCR Reader. […]

[5] = tested on: latent HIV-1 in blood CD4+ T cells from infected individuals on suppressive ART; format: cell-based

O=c1sn(-c2cccc3ccccc23)c(=O)n1Cc1ccccc1 [Tideglusib, 4-benzyl-2-(naphthalen-1-yl)-1,2,4-thiadiazolidine-3,5-dione]
GLUT1 surface expression over the untreated control (CD4+ T cells [1]): did not increase GLUT1 surface expression | p65/DNA binding (NF-κB (p65)): time-dependent increase | activation of the AKT/mTOR pathway (phosphorylation of GSK-3β, AKT and TSC2) ([2]; 15 minutes post-treatment): non-significant activation | activating phosphorylation of p70S6K on T389 ([2]; 1 hour): significant phosphorylation values | inhibiting phosphorylation of GSK-3β on S9 ([2]; 1 hour): significant phosphorylation values | inhibiting phosphorylation of TSC2 on T1426 ([2]; 6 hours): statistically-relevant phosphorylation | phosphorylation of AKT on S473 ([2]; 6 hours): statistically-relevant phosphorylation | overall transcriptome changes, pathways (700 transcripts) ([2]; after 1 and 6 hours): activation of the mitogen-activated protein kinase (MAPK), PI3K, Ras, Wnt and TGFβ pathways and deactivation of the Hedgehog, Notch and Janus kinases (JAK) and signal transducer and activator of transcription proteins (STAT)-pathways | surface expression of the activation markers CD69 or CD25 (CD4+ T cells [3]): no increase | virus-associated mRNA in culture supernatant, median value ([4]; 1 μM, 24 hours, relative to untreated control): 20.69 fold | virus release vs untreated control ([4]; GALT cultures): over 20 fold | release of virus-associated HIV-1 mRNA relative to bryostatin-1, by median values ([5]; 1 μM tideglusib vs 10 nM bryostatin-1): twofold more | virus-associated HIV-1 mRNA, median value ([5]; 1 μM, 48 hours, relative to untreated control): 10.3 fold
